# Measured values published in PubChem BioAssay AID449762 (Southern Research Specialized Biocontainment Screening …, 2010).
# Records with an inconclusive call do not appear.
# Test system: M. tuberculosis H37Rv growth inhibition, 7H9 media
# Test: M. tuberculosis growth inhibition, HTS (AID 449762);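 also: bacterial growth assessed after seven days of incubation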
# Conditions: for IC90: measured here: IC90 growth inhibition
SMILES,IC50 [µM],IC90 [µM]
COc1cccc2c1C(=O)c1c(O)c3c(c(O)c1C2=O)C[C@@](O)(C(=O)CO)C[C@@H]3O[C@H]1C[C@H](N)[C@@H](O)[C@H](C)O1,2.64,4.86
COc1ccc(-c2nnc(SCC(=O)N3CCc4ccccc4C3)o2)cc1,17.6,29.2
CCCOc1ccc(C(=O)NC(=S)NCc2cccnc2)cc1,21.2,28
O=C(O)c1ccccc1C(=O)NNc1ccc(Cl)cc1Cl,,> 100
COc1cccc(N2CCN(c3ncnc4c3[nH]c3ccccc34)CC2C)c1 (centres undefined),24.2,35.5
COc1ccc(C(CC(=O)c2ccccc2)S(=O)(=O)c2ccc(C)cc2)cc1 (centres undefined),20.2,29.4
CCCc1cc(-c2nc(N)ncc2-c2ccc3c(c2)OCCCO3)c(O)cc1OC,48.6,54.9
CC(Oc1ccc2ccccc2c1)C(=O)NNC(=S)NC(=O)c1ccco1 (centres undefined),6.06,45
c1ccc(CN2CCN(CCCNc3ccc4nnc(-c5ccccc5)n4n3)CC2)cc1,19.4,24.7
COc1ccc(NC(=O)ON=C2c3ccccc3-c3ccccc32)cc1,,> 100
O=C(OCc1ccc([N+](=O)[O-])cc1)c1cc2ccccc2oc1=O,7.82,23.6
Cc1nc(SCC(=O)NC2CCCCC2)[nH]c(=O)c1C,< 0.2,< 0.2
CC(C)C(=O)N1CCC2(CC1)Oc1ccc(Cl)cc1C(=O)C21CC(c2ccccc2)=NO1 (centres undefined),67.8,> 100
CS/C(Nc1cc(Cl)ccc1Cl)=C(/C#N)C(=O)c1ccco1,3.6,40.2
COCCOC(=O)c1ccc(NC(=O)COc2ccc([N+](=O)[O-])cc2)cc1,83,> 100
Cc1ccc(S(=O)(=O)N2CCC(C(=O)OCc3ccccc3)CC2)cc1C,22.1,40.6
O=C1CCc2ccc(OCCCCN3CCN(c4cccc(Cl)c4Cl)CC3)cc2N1,13.1,> 100

SMILES,IC50 [µM],IC90 [µM]
COCC(=O)O[C@]1(CCN(C)CCCc2nc3ccccc3[nH]2)CCc2cc(F)ccc2[C@@H]1C(C)C,32.2,42.6
CC(C)(C)c1ccc(Cn2nnc3c(=O)[nH]c(C4CCCN(C(=O)Cc5cccs5)C4)nc32)cc1 (centres undefined),35.2,47.8
O=C(C1CCCN(c2ncnc3c2nc2n3CCCCC2)C1)N1CCN(c2ccc(Cl)cc2)CC1 (centres undefined),30.6,40.3
C#CCOCCOCCOCCNc1nc(N2CCN(C(=O)C(Cc3ccc(O)cc3)n3cc(C(N)CC(C)C)nn3)CC2)nc(N2CCN(C(=O)C(Cc3cc4ccccc4[nH]3)n3cc(C(N)Cc4ccc(O)cc4)nn3)CC2)n1 (centres undefined),6.03,6.93
CCCn1c(=N)n(CC(=O)c2ccc(OCC(=O)OC)cc2)c2ccccc21,11.1,43.6
Cc1cc(C)cc(-n2c(C)c3c(C)nnc(C)c3c2C)c1,62.8,78.1
Cn1nc(C(F)(F)F)c2cc(NC(=O)OCC(C)(C)C)sc21,13.2,40
Cc1ccc(-c2noc(-c3cc4ccccc4oc3=O)n2)cc1,6.7,> 100
Cc1ccc(Cn2c(C(CO)Nc3nc(-c4ccc(F)cc4)cs3)nc3ccccc32)cc1 (centres undefined),42.1,60.2
Cn1c(/C=N/Nc2nc3ccccc3[nH]2)nc2ccccc21,40.1,61.4
CC1Cc2ccccc2N1C(=S)NC(=O)c1ccc(Cl)cc1Cl (centres undefined),7.13,> 100
O=C(Nc1cccc(-c2csc(Nc3ccc(Cl)cc3)n2)c1)c1cccc(C(F)(F)F)c1,27,> 100
CC(C)(C)c1csc(NC(=O)c2c(F)c(F)c(F)c(F)c2F)n1,17.7,25.2
O=C(Nc1ccccc1)C1=C[C@@H](C2CCCCC2)C[C@@H](OCc2ccc(CO)cc2)O1,45,50.2
C(=N\Nc1ccc2ccccc2n1)/c1ccc2c(c1)OCCO2,2.77,4.03
Oc1ccc(Nc2nc(-c3ccc4ccccc4c3)cs2)cc1,42.9,> 100
